# Measured values taken from patent US10369159B2, “Estrogen receptor β partial agonist having estrogen receptor α inhibitory effect, and gynecological disease therapeutic agent using same” (NOBELPHARMA CO., LTD., priority 2015, dated 2019).
# Values joined by “and” are separate entries in the source; they are usually repeats but may differ in a detail not shown here. Equal values may be shown once.
# Legend:
# [1] = system: Era; assay: Gene expression analysis of endometrial implants (TaqMan), Era; type: in vivo, rat; conditions: for Expression level Era: endometrial implants, corrected by GAPDH, n 6, E2 control 44.2 ± 18.9
# Description: Total RNA was extracted […] the rat-derived endometrial graft (27 specimens), then quality of the RNA was inspected with a spectrophotometer and bio-analyzer, and then reverse transcription reaction of the RNA was performed, followed by gene expression analysis was performed according to TaqMan method.
# RNA was extracted from the rat uterine horn strips and grafted uterine strip using the RNeasy Fibrous Tissue Mini Kit.
# Concentration of the extracted RNA was measured with a NanaoDrop. Also RIN measurements using a bioanalyzer (6000 nano kits) was carried out. A 6000 pico-kit was used for bioanalyzing of the two samples with low yield (Sample ID: 202, 507).
# cDNA obtained by reverse transcription reaction from 1000 ng/uL of commercially available Rat Tissue Universal Reference Total RNA (Catalog Number PR-UR-100, ZYAGEN Inc.) using SuperScript VILO Master Mix (hereinafter “Standard”) was used as a standard substance.
# Based on the concentration measured with a spectrophotometer, reverse transcription reaction of the specimen with Super Script VILO Master Mix was performed to give 50 ng/uL of cDNA (the following example). As for the samples with low yield, that is Sample ID: 202, 502, 507, the reverse transcription reaction was performed to give 25 ng/uL, 25 ng/uL, and 12.5 ng/uL of cDNA, respectively.
# TaqMan reaction by using Step One Plus Real-Time PCR System was performed with standard 250, 62.5, 15.625, 3.9, 0.98 ng/well or sample 5.0 ng/well. A cycle of reaction, two minutes at 50° C. and 10 minutes at 95° C., followed by 15 seconds at 95° C. and one minute at 60° C., was repeated 40 cycles, then the fluorescence value FAM was measured in real time after the reaction at 60° C. In addition to the target eight genes, GAPDH gene as an internal control gene was measured. All the standards and samples were measured in triplicate.
# From each of the two calibration curves (target gene, GAPDH gene) obtained from the standard, gene expressions level of the target gene and GAPDH gene of the sample was calculated, respectively. Then, the target gene expression level was corrected by the GAPDH gene expression level, the internal control gene. And then, an average gene expression level of the samples in each group was calculated, followed by the average gene expression level of the two groups was used as a standard to compare with each of the other groups.
# [2] = system: rat endometriosis model (grafted uterine strips); assay: Endometriosis inhibiting activity: grafted uterine strip weight in ovariectomized, E2-treated rat endometriosis model; type: in vivo; conditions: for Total wet weight of the grafted uterine strips: left and right strips including abdominal wall, vehicle 0.4785 g, Sham 0.2596 g; for Suppression rate of grafted uterine strip weight (% ± SE): vs vehicle control, strip weight after subtracting Sham abdominal wall; for Suppression rate of the grafted uterine strip (average value): vehicle control group set as 0%, Table 2
# Description: Buprenorphine hydrochloride (Lepetan injection 0.3 mg, Otsuka Pharmaceutical Co., Ltd., […] of which was diluted to 6.7 times with a physiological saline solution to provide 0.03 mg/mL solution when using) was administered subcutaneously into the back of the rats at a dose of 0.0024 mg/body (0.08 mL/body). The administration period was two days, which includes twice before and after the model preparation on the day when the model was prepared, and twice per day on the next day. It should be noted that the dosage amount of 0.0024 mg/body was the one that satisfied a recommended dose of 0.01 mg/kg in […] (0.0096 mg/kg) (estimated weight upon model preparation: 180 to 240 g).
# Under 2% inhalation anesthesia, left and right flanks of the rats (operation site) were shaved, and the skin of one of the flasks was dissected. After peeling off the skin, the muscle layer was cut to open using a retractor so as to protrude it to the outside of the body with fat tissue around the ovary, then the fallopian tubes were ligated with a silk thread (sterile suture) followed by removing the ovary including the fat tissue. The peeled muscle layer and one part of the peritoneum were sutured with silk thread (sterile suture), then kanamycin solution, antibiotics, (manufactured by Meiji Seika Pharma Co., Ltd., “Meiji,” kanamycin sulfate injection of 1000 mg was diluted to 5 mg/mL with injection solvent) was applied to the operation site. The dissected skin was sutured with silk thread (sterile suture). Another ovary in the opposite side was removed in the same manner. At the time of the operation, sterile gloves were used, and surgical instruments used were sterilized by an autoclave and beads sterilizer. The surgical area was shaved with an electric clipper followed by disinfected with isodine alcohol and covered with a sterile bedsheet and a covering cloth.
# Since the day of ovariectomy, after it was performed, E2 (β-Estradiol, 3 μg/mL animal) was subcutaneously administered to the back of the rats every day for 2 weeks. E2 (3 μg/mL animal) was administered in the same manner during 4 weeks after model preparation on the date that the model was prepared.
# Thirteen days after ovariectomy (day 0 counting), the rats were divided into four groups (N=8) as the total weight on the grouping day was uniform in each group. Animals excluded from the groups were distributed to the Sham group.
# On the next day of the grouping, models were prepared in accordance with Uchiide et al method, which was partially modified Vernon et al method. Rats were placed under inhalation anesthesia of 2% isoflurane, and made an incision in the abdomen along the midline, then the right uterine horn was excised and cut in half along the vertical line after removing the fat cells around the excised uterine horn. The uterine horn was made an incision along the horizontal axis to cut out two strips of approximately 5 mm×5 mm. The serosal surface of the abdominal cavity and the endometrial surface of the uterus strips were faced and sawed up the four corners thereof with a bioabsorbable suture (6-0, PDS-II, manufactured by Ethicon) to graft the uterine horns into the right and left abdominal walls one by one. In order to avoid adhesion, the abdominal cavity was washed with saline (manufactured by Otsuka Pharmaceutical Factory). Then, the abdominal wall fascia was sawed up with a bioabsorbable suture (4-0, monocryl, manufactured by Ethicon) and the skin was sawed up with a silk suture (4-0, blade silk, manufactured by Ethicon).
# A required amount of SR16234 was weighed, pulverized with an agate mortar and pestle, and suspended in 0.5% carboxymethylcellulose sodium (CMC-Na) solution to prepare a 2 mg/mL solution, then used as undiluted solution. Preparation was performed using a volumetric flask. […]
structure (smiles),measurement,setting,value
"CCN(CC)Cc1ccc(OCC[C@H]2CC[C@H]3[C@@H]4[C@H](C)Cc5cc(O)ccc5[C@H]4CC[C@]23C)c(OC)c1 [SR16234, (7α)-21-[4-[(diethylamino)methyl]-2-methoxyphenoxy]-7-methyl-19-norpregna-1,3,5(10)-triene-3-ol]",Expression level Era,[1]; 0.1 mg/kg,39.3 ± 14.3 ng
same,Expression level Era,[1]; 0.3 mg/kg,47.6 ± 14.9 ng
same,Expression level Era,[1]; 1 mg/kg,33.2 ± 20.7 ng
same,Effect on the estrogen receptor gene expression of Era (in words),[1]; in comparison with the E2 control group,not observed
same,Total wet weight of the grafted uterine strips,[2]; 0.1 mg/kg p.o. 28 days,0.3988 g
same,Suppression rate of grafted uterine strip weight (% ± SE),[2]; 0.1 mg/kg p.o. once a day for 28 days,36.4 ± 25.2%
same,Suppression rate of the grafted uterine strip (average value),[2]; 0.1 mg/kg p.o.,26%
same,Total wet weight of the grafted uterine strips,[2]; 0.3 mg/kg p.o. 28 days,0.3401 g
same,Suppression rate of grafted uterine strip weight (% ± SE),[2]; 0.3 mg/kg p.o. once a day for 28 days,63.2 ± 17.7%
same,Suppression rate of the grafted uterine strip (average value),[2]; 0.3 mg/kg p.o.,45%
same,Suppression rate of the grafted uterine strip weight compared to the vehicle control group (in words),[2]; 1.0 mg/kg administered group,particularly significant suppression rate
same,Total wet weight of the grafted uterine strips compared to the vehicle control group (in words),[2]; 1.0 mg/kg administered group,particularly significant suppression ratio
same,Total wet weight of the grafted uterine strips,[2]; 1.0 mg/kg p.o. 28 days,0.2647 g
same,Suppression rate of grafted uterine strip weight (% ± SE),[2]; 1.0 mg/kg p.o. once a day for 28 days,97.7 ± 21.2%
same,Suppression rate of the grafted uterine strip (average value),[2]; 1.0 mg/kg p.o.,68% and 69.0%
